# “Also recorded” adds a separate entry of the source. Like-named read-outs stand apart in the source and are kept apart here.
# Experiments:
# LAZ 221 cells [1] = assay: Migration (chemotaxis) of LAZ 221 pre-B ALL cells; format: cell-based, human; settings: LAZ 221, peptide 100 nM; spontaneous locomotion 1886
# LAZ 388 cells = assay: Migration (chemotaxis) of LAZ 388 EBV-transformed B cells; format: cell-based, human
# NALM 6 cells [2] = assay: Light scatter analysis of morphological response of NALM 6 cells; format: cell-based, human
# Experimental: FIG. 2, Panels A and B. Methionine-enkephalin induces a morphological change in NALM 6 cells. […] Analysis of forward and right angle light scatter was performed using a Becton Dickinson FACS SCAN flow cytometer as described (Sklar et al., 1984). Histograms of light scatter were obtained by analyzing 10,000 cells per sample. Data are expressed as mean channel number (y-axis) vs concentration of MET-ENK (x-axis).
# Forward and right angle light scatter analysis of the morphological response to MET-ENK: The effect of MET-ENK on cell morphology were measured using flow cytometric analysis of forward and right angle light scatter as previously described (Sklar et al., 1984). For these studies 10^6 cells were resuspended in one-ml of PBS, activated by the addition of MET-ENK or maintained in the PBS buffer alone, and then, incubated for 5 minutes at 37° C. […] Samples were analyzed on a Becton Dickinson FACS SCAN flow cytometer with excitation at 488 nm (Sklar et al., 1984). Histograms of light scattering were obtained by analyzing 10,000 cells for each sample. Data analysis was performed using the Lysys System software package.
# NALM 6 cells [3] = assay: Flow cytometry of surface molecule expression on NALM 6 cells; format: cell-based, human; settings: for surface expression of CD9: NALM 6 / pre-B ALL cells
# Experimental: NALM 6 cells (10^6 /ml) were incubated at 37° with MET-ENK (10^-7 M) for 0 (Panel A and B) or 30 minutes (Panel C and D). Cells were then transferred to an ice bath, pelleted by centrifugation, and stained for immunofluorescent analysis and flow cytoflourimetry. Data are shown as histograms depicting the distribution of 10,000 cells labeled with anti-CD9 (Panel A and C) or CD-10 (Panel B and D) mAb. The anti-CD9 and anti-CD10 mAb used for these experiments were isotype matched (IgG1).
# (§1) FIG. 4, Panels A-C. […] Data are presented as mean fluorescence intensities measured for 10,000 cells labeled with anti-CD9 or CD10 mAb. In Panel A, the NALM 6 Cells were incubated with MET-ENK (10^-7 M) for the times indicated. In Panel B, the LAZ 221 cells were incubated with MET-ENK at the doses indicated for 5 minutes at 37° C. […] The anti-CD9 and anti-CD10 mAb used for these experiments were of the IgG2a isotype.
# (§2) Immunofluorescence Staining and Flow Cytometric Analysis of Cell Surface Molecules: Cells were resuspended at 1×10^6 /ml in PBS and then incubated for periods of 5 to 120 minutes at 37° C. with MET-ENK at doses of 0 to 10^-5 M. Incubations were terminated by transferring samples to an ice bath and then pelleting the cells by centrifugation at 1800 rpm for 5 minutes at 4° C.
# (§3) Immunofluorescence staining was carried out in 4-ml tubes maintained in an ice water bath. […] Cells were subsequently fixed within a 2% solution of formalin and maintained in the dark at 10° C. until analyzed.
# (§4) Flow cytometric analysis was performed using a FACS SCAN Flow Cytometer (Becton Dickinson, Mountain View, Calif.) equipped with a HP9000 Series computer and the Lysys System software analysis package. Data were collected as histograms depicting the fluorescence intensity for 5,000 to 10,000 cells per sample.
# (§5) The non-binding IgG1 MOPC myeloma protein, anti-macrophage/monocyte specific CD14 (MO2; IgG2) and anti-T cell specific CD3 (OKT3; IgG2a) mAb were employed as nonreactive controls for measuring the autofluorescence of B cells.
# LAZ 221 cells [4] = assay: Flow cytometry of surface molecule expression on LAZ 221 cells; format: cell-based, human
# Experimental: as §1, §2, §3, §4, §5
# NALM 6 cells [5] = assay: [Ca^2+ ]i response of NALM 6 / leukemia cells (Indo-1, flow cytometry); format: cell-based, human
# Experimental: FIG. 15, Panels A-C. […] Cells were labeled with Indo-1 as previously described (Rabinovitch et al., 1986), washed twice in serum-free medium and held at 4° C. until flow cytometric analysis. The violet/blue fluorescence ratio was measured using previously described methods (Rabinovitch et al., 1986). Nonstimulated cells (measured in medium, alone) were used to establish a relative violet/blue ratio arbitrarily set at 1.0 as previously described (Rabinovitch). Calibration of [Ca^2+ ]i was carried out as previously described by Rabinovitch et al (1986) using the formula: [formula]
# Rmax values were determined by measuring the maximum shift in indo violet/blue fluorescence for cells treated with 4 μM ionomycin. Rmin was measured as the minimum ratio for the violet blue fluorescence of ionomycin treated cells following the addition of 8 mM EGTA. […] The Kd (effective dissociation constant) was set at 250 nM.
# COS (Vector Control) = assay: cAMP accumulation in COS cells (vector control); format: cell-based, monkey
# NALM 6 cells [6] = settings: cited from earlier work
# T cells = settings: literature; cited from earlier work
# lymphocytes = settings: infusion into afferent lymphatics, sheep; cited from earlier work
# [7] = NALM 6, 10^-7 M MET-ENK, untreated 1.0
# [8] = NALM 6, 10^-7 M MET-ENK, untreated 1.1
# [9] = NALM 6, 10^-7 M MET-ENK, untreated 1.8
# [10] = LAZ 221, 10^-7 M MET-ENK, untreated 1.0
# [11] = LAZ 221, 10^-7 M MET-ENK, untreated 1.7
compound,measurement,setting,value
"CSCC[C@H](NC(=O)[C@H](Cc1ccccc1)NC(=O)CNC(=O)CNC(=O)[C@@H](N)Cc1ccc(O)cc1)C(=O)O [MET-ENK, Tyr-Gly-Gly-Phe-Met]",cell migration (cell counts),LAZ 221 cells [1],6199 cell counts
same,cell migration (cell counts),"LAZ 388 cells; LAZ 388, peptide 100 nM, spontaneous locomotion 1938",1986 cell counts
same,migration of LAZ 388 cells,LAZ 388 cells; LAZ 388 vs spontaneous locomotion,equivalent to their spontaneous locomotion
same,morphological response (light scatter) of NALM 6 cells,NALM 6 cells [2]; 5 minutes at 37° C.,increase in light scatter (right angle and forward)
same,lowest MET-ENK concentration causing morphological response,NALM 6 cells [2]; NALM 6,0.01 nM
same,time of exposure for morphological response,NALM 6 cells [2]; NALM 6,≤ 5 minutes
same,duration of enhanced CD9 expression,NALM 6 cells [3]; MET-ENK 10^-7 M,60 min
same,time of decline of CD9 expression to near baseline,NALM 6 cells [3]; MET-ENK 10^-7 M,120 min
same,incubation time causing increase in CD9 expression,"NALM 6 cells [3]; MET-ENK 10^-7 M, pre-B ALL cells",≤ 10 min
same,"staining for β-1 integrins, MET-ENK treated vs not",NALM 6 cells [3]; NALM 6,equivalent on NALM 6 cells incubated with (+) or without (-) MET-ENK
same,CD11b (Mac 1) fluorescence ratio (mAb/isotype control),"NALM 6 cells [3]; NALM 6, 10^-7 M MET-ENK 30 min, untreated 1.0",1.1
same,CD4 fluorescence ratio,NALM 6 cells [3]; [7],1.0
same,CD44 (homing receptor) fluorescence ratio,NALM 6 cells [3]; [7],2.2
same,CD49b (VLA-α2 chain) fluorescence ratio,NALM 6 cells [3]; [7],0.9
same,CD58 (LFA-3) fluorescence ratio,NALM 6 cells [3]; [7],0.9
same,CD18 (Integrin β chain) fluorescence ratio,NALM 6 cells [3]; [8],1.4
same,CD45 (T200) fluorescence ratio,NALM 6 cells [3]; [8],1.0
same,VLA-1 fluorescence ratio,NALM 6 cells [3]; [8],0.6
same,VLA-3 fluorescence ratio,NALM 6 cells [3]; [8],0.7
same,CD20 fluorescence ratio,"NALM 6 cells [3]; NALM 6, 10^-7 M MET-ENK, untreated 1.5",1.3
same,CD72 fluorescence ratio,"NALM 6 cells [3]; NALM 6, 10^-7 M MET-ENK, untreated 1.6",2.8
same,CD23 fluorescence ratio,NALM 6 cells [3]; [9],1.6
same,CD49f (VLA-α6 chain) fluorescence ratio,NALM 6 cells [3]; [9],1.3
same,CD22 fluorescence ratio,"NALM 6 cells [3]; NALM 6, 10^-7 M MET-ENK, untreated 2.3",3.1
same,CD49d (VLA-α4 chain) fluorescence ratio,"NALM 6 cells [3]; NALM 6, 10^-7 M MET-ENK, untreated 3.9",4.4
same,VLA-5 fluorescence ratio,"NALM 6 cells [3]; NALM 6, 10^-7 M MET-ENK, untreated 5.2",4.9
same,CD29 (VLA-β chain) fluorescence ratio,"NALM 6 cells [3]; NALM 6, 10^-7 M MET-ENK, untreated 8.4",9.3
same,CD54 (ICAM-1) fluorescence ratio,"NALM 6 cells [3]; NALM 6, 10^-7 M MET-ENK, untreated 9.3",10.5
same,VLA-β; DE9N fluorescence ratio,"NALM 6 cells [3]; NALM 6, 10^-7 M MET-ENK, untreated 13.6",13.8
same,surface expression of CD10,NALM 6 cells [3]; NALM 6 / LAZ 221,no effect on CD10 expression
same,surface expression of CD9,NALM 6 cells [3],upregulation of CD9; also recorded: transient increase in their surface expression of CD9 but not CD10 molecules
same,surface expression of CD9,NALM 6 cells [3]; listed as Methionine-enkephalin,"discrete, transient up-regulation in the CD9 molecules; also recorded: rapid and dose-dependentincrease in the CD9 but not CD10 molecules"
same,"CD9 expression, cells in ice water bath","NALM 6 cells [3]; ice water bath, data not shown",had no effect when they were maintained in an ice water bath
same,surface expression of CD9,LAZ 221 cells [4]; LAZ 221,transient increase in their surface expression of CD9 but not CD10 molecules
same,CD2 (LFA-2) fluorescence ratio,"LAZ 221 cells [4]; LAZ 221, 10^-7 M MET-ENK, untreated 0.9",1.0
same,CD4 fluorescence ratio,LAZ 221 cells [4]; [10],1.0
same,CD11a (LF1α) fluorescence ratio,LAZ 221 cells [4]; [10],1.1
same,CD18 (Integrin β chain) fluorescence ratio,LAZ 221 cells [4]; [10],1.1
same,CD20 fluorescence ratio,LAZ 221 cells [4]; [10],1.1
same,CD11b (Mac 1) fluorescence ratio,"LAZ 221 cells [4]; LAZ 221, 10^-7 M MET-ENK, untreated 1.4",1.5
same,CD54 (ICAM-1) fluorescence ratio,"LAZ 221 cells [4]; LAZ 221, 10^-7 M MET-ENK, untreated 1.5",1.5
same,CD19 fluorescence ratio,LAZ 221 cells [4]; [11],1.9
same,CD29 (VLA-β chain) fluorescence ratio,LAZ 221 cells [4]; [11],1.9
same,CD58 (LFA-3) fluorescence ratio,LAZ 221 cells [4]; [11],1.9
same,VLA-β; DE9N fluorescence ratio,"LAZ 221 cells [4]; LAZ 221, 10^-7 M MET-ENK, untreated 5.8",5.6
same,lowest dose increasing CD9 expression,"LAZ 221 cells [4]; LAZ 221, 5 minutes at 37° C.",10^-11 M
same,[Ca^2+ ]i response,NALM 6 cells [5],rapid rise in the concentration of free intracellular Ca2+; also recorded: rapid rise in [Ca^2+ ]i
same,[Ca^2+ ]i response,NALM 6 cells [5]; listed as methionine-enkephalin,concentration dependent rise in [Ca^2+ ]i
same,cAMP,"COS (Vector Control); COS (Vector Control), MET-ENK 0.01 nM, naloxone 10 μM, forskolin 0.1 μM, controls 40.2 and 38.8",31.6 fmoles/cell × 10^3
same,"effect on cAMP, mock transfected controls",COS (Vector Control); COS transfected with vector alone,no effect on the cAMP produced in mock transfected controls
same,lag phase before [Ca^2+ ]i rise,NALM 6 cells [6],~ 30 sec
same,"T cell aggregation, rosetting, morphology, adhesion molecules",T cells,enhance T cell aggregation
same,lymphocyte exit from popliteal nodes,lymphocytes,stimulated small and blast lymphocytes to exit the node and enter the efferent lymph

# — patent US5753516A, “Screening method for ligands of the EBI-1 receptor” (priority 1995, dated 1998)
